Assay results taken from ChEMBL document CHEMBL3991601, “The target landscape of clinical kinase drugs” (Science, 2017).
Activity calls are given as the source filed them.

What was measured:
[1] = biological target: T1, Mitogen-activated protein kinase kinase kinase 2 (Homo sapiens, UniProt Q9Y2U5)
T1 sequence (Q9Y2U5 whole entry): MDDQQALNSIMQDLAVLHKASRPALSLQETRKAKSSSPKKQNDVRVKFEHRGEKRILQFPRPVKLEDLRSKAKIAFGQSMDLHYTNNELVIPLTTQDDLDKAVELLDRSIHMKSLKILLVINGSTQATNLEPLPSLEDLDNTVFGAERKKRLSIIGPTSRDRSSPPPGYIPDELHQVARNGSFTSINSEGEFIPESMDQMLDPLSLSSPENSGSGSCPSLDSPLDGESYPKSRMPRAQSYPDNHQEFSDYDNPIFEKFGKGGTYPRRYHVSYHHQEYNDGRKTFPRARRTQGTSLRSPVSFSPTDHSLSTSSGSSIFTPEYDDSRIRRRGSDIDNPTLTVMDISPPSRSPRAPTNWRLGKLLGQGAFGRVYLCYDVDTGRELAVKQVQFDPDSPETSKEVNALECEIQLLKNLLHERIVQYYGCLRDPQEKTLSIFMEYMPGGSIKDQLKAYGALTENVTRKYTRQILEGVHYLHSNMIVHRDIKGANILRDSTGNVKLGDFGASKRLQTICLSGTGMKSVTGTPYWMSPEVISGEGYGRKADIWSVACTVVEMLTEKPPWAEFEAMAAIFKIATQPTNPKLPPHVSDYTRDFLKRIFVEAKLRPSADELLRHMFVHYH

ADP/ATP translocase 2 = biological target: T2, ADP/ATP translocase 2 (Homo sapiens, UniProt P05141)
T2 sequence (P05141 whole entry): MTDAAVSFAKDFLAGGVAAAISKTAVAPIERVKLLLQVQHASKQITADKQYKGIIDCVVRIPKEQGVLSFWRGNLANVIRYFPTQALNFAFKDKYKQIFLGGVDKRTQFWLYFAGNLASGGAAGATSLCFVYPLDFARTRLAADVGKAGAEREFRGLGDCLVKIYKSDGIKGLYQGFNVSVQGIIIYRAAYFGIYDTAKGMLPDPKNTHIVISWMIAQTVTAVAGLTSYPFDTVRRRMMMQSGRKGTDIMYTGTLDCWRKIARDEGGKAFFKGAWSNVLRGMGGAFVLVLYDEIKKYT

[2] = biological target: T3, Cysteine--tRNA ligase, cytoplasmic (Homo sapiens, UniProt P49589)
T3 sequence (P49589 whole entry): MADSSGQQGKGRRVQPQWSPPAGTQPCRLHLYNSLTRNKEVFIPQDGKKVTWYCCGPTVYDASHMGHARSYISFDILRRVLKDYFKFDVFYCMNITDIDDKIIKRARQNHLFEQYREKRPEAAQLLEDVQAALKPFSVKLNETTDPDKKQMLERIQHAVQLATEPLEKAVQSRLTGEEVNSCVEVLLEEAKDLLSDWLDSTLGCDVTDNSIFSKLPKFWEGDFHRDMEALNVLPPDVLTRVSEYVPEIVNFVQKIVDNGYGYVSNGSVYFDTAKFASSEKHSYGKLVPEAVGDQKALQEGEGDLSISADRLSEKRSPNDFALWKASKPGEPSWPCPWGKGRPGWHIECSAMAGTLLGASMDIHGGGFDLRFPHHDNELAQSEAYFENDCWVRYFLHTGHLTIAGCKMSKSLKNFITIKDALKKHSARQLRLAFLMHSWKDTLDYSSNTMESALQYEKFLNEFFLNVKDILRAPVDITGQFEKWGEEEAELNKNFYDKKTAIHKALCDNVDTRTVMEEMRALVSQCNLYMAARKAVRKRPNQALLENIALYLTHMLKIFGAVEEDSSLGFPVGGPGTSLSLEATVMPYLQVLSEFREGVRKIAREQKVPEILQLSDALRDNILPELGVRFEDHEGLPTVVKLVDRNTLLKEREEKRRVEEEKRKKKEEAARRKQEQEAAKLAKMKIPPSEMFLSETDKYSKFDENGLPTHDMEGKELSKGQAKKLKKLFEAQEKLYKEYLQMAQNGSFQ

[3] = biological target: T4, Mitogen-activated protein kinase 15 (Homo sapiens, UniProt Q8TD08)
T4 sequence (Q8TD08 whole entry): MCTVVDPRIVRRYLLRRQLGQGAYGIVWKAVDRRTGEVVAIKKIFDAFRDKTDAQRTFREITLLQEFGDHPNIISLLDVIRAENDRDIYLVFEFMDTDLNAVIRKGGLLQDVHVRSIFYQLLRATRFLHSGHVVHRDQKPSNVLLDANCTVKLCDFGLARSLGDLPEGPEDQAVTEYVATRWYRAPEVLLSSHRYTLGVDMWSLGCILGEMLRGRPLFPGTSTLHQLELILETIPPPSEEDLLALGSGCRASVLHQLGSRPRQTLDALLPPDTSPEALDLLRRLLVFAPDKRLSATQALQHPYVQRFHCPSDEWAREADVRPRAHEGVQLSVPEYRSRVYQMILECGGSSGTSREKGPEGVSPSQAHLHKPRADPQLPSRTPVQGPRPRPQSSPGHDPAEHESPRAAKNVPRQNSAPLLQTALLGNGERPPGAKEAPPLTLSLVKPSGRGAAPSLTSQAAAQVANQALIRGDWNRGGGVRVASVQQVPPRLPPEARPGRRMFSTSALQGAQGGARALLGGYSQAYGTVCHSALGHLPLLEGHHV

[4] = biological target: Protein kinase C alpha type (Homo sapiens, UniProt P17252)
Glycine--tRNA ligase = biological target: T5, Glycine--tRNA ligase (Homo sapiens, UniProt P41250)
T5 sequence (P41250 whole entry): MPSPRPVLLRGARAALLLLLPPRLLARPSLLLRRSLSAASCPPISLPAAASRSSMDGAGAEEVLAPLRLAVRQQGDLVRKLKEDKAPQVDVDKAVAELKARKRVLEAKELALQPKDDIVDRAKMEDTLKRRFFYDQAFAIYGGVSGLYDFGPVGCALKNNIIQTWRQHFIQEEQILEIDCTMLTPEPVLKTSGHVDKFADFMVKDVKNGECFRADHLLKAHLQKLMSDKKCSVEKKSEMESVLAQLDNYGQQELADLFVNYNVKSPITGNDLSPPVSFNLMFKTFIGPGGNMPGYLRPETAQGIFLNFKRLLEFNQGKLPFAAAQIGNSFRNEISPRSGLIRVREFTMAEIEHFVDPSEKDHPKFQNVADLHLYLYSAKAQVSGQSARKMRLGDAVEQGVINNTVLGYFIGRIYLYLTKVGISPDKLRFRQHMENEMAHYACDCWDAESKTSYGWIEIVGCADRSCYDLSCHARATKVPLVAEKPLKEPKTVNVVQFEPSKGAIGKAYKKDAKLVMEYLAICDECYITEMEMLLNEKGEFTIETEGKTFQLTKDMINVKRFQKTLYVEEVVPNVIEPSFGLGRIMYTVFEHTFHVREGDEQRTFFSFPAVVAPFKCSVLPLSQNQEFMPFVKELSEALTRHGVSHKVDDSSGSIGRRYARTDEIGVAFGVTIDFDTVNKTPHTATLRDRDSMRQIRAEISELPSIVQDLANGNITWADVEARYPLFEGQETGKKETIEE
Further: in the data inactive means no Kd found up to 30 µM.

SMILES | Kd [1] | Kd (ADP/ATP translocase 2) | Kd [2] | Kd [3] | Kd [4] | Kd (Glycine--tRNA ligase)
NC(=O)c1ccc(N(C(N)=O)c2c(F)cccc2F)nc1-c1ccc(F)cc1F [VX-702] | > 30 µM (inactive) | > 30 µM (inactive) | > 30 µM (inactive) | > 30 µM (inactive) | > 30 µM (inactive) | > 30 µM (inactive)
Cn1cc(-c2[nH]c3cc(NC(=O)[C@H](N)C4CCCCC4)cc4c3c2C=NNC4=O)cn1 | > 30 µM (inactive) | > 30 µM (inactive) | > 30 µM (inactive) | > 30 µM (inactive) | > 30 µM (inactive) | > 30 µM (inactive)
CN(c1ncccc1CNc1nc(Nc2ccc3c(c2)CC(=O)N3)ncc1C(F)(F)F)S(C)(=O)=O [PF-00562271] | > 30 µM (inactive) | > 30 µM (inactive) | > 30 µM (inactive) | 1.47 µM | > 30 µM (inactive) | > 30 µM (inactive)
Cc1cc(Nc2nc(N[C@@H](C)c3ncc(F)cn3)ncc2Cl)n[nH]1 [AZD-1480] | > 30 µM (inactive) | > 30 µM (inactive) | > 30 µM (inactive) | > 30 µM (inactive) | > 30 µM (inactive) | > 30 µM (inactive)
COc1cc2ncnc(Nc3ccc(O)cc3)c2cc1OC [WHI-P131] | > 30 µM (inactive) | > 30 µM (inactive) | > 30 µM (inactive) | > 30 µM (inactive) | > 30 µM (inactive) | > 30 µM (inactive)
NC[C@@](O)(c1ccc(Cl)cc1)c1ccc(-c2cn[nH]c2)cc1 [AT-13148] | > 30 µM (inactive) | > 30 µM (inactive) | > 30 µM (inactive) | > 30 µM (inactive) | > 30 µM (inactive) | > 30 µM (inactive)
Cn1c(=O)n(-c2ccc(C(C)(C)C#N)cc2)c2c3cc(-c4cnc5ccccc5c4)ccc3ncc21 [DACTOLISIB] | > 30 µM (inactive) | > 30 µM (inactive) | > 30 µM (inactive) | > 30 µM (inactive) | > 30 µM (inactive) | > 30 µM (inactive)
COc1cc(F)c(F)c(Nc2ccc(I)cc2F)c1NS(=O)(=O)C1(C[C@H](O)CO)CC1 [REFAMETINIB] | > 30 µM (inactive) | > 30 µM (inactive) | > 30 µM (inactive) | > 30 µM (inactive) | > 30 µM (inactive) | > 30 µM (inactive)
CC(C)CC(=O)Nc1[nH]nc2c1CN(C(=O)C1CCN(C)CC1)C2(C)C [PHA-793887] | > 30 µM (inactive) | > 30 µM (inactive) | > 30 µM (inactive) | 0.264 µM (active) | > 30 µM (inactive) | > 30 µM (inactive)
CC1(COc2ccc3c(c2)ncn3-c2ccc3cccc(N4CCC(N)CC4)c3n2)COC1 [CRENOLANIB] | > 30 µM (inactive) | > 30 µM (inactive) | > 30 µM (inactive) | > 30 µM (inactive) | > 30 µM (inactive) | 
C=CCn1c(=O)c2cnc(Nc3ccc(N4CCN(C)CC4)cc3)nc2n1-c1cccc(C(C)(C)O)n1 [ADAVOSERTIB] | > 30 µM (inactive) | > 30 µM (inactive) | > 30 µM (inactive) | > 30 µM (inactive) | > 30 µM (inactive) | > 30 µM (inactive)
CNC(=O)c1ccc(Nc2ncc(C(F)(F)F)c(NCc3nccnc3N(C)S(C)(=O)=O)n2)cc1 [DEFACTINIB] | > 30 µM (inactive) | > 30 µM (inactive) | > 30 µM (inactive) | > 30 µM (inactive) | > 30 µM (inactive) | > 30 µM (inactive)
FC(F)(F)c1ccc(CNc2ccc(Cc3c[nH]c4ncc(Cl)cc34)cn2)cn1 [PEXIDARTINIB] | > 30 µM (inactive) | > 30 µM (inactive) | > 30 µM (inactive) | > 30 µM (inactive) | > 30 µM (inactive) | > 30 µM (inactive)
N#CCNC(=O)c1ccc(-c2ccnc(Nc3ccc(N4CCOCC4)cc3)n2)cc1 [MOMELOTINIB] | > 30 µM (inactive) | > 30 µM (inactive) | > 30 µM (inactive) | > 30 µM (inactive) | > 30 µM (inactive) | > 30 µM (inactive)
COc1cccc2cc(-c3nc([C@H]4CC[C@H](C(=O)O)CC4)n4ncnc(N)c34)[nH]c12 [OSI-027] | > 30 µM (inactive) | > 30 µM (inactive) | > 30 µM (inactive) | > 30 µM (inactive) | > 30 µM (inactive) | > 30 µM (inactive)
COCCN1CCN(Cc2ccc(-c3n[nH]c4c3C(=O)c3c(NC(=O)NN5CCOCC5)cccc3-4)cc2)CC1 [RGB-286638] | > 30 µM (inactive) | > 30 µM (inactive) | > 30 µM (inactive) | > 30 µM (inactive) | > 30 µM (inactive) | > 30 µM (inactive)
CCc1cc2c(cc1N1CCC(N3CCOCC3)CC1)C(C)(C)c1[nH]c3cc(C#N)ccc3c1C2=O [ALECTINIB] | > 30 µM (inactive) | > 30 µM (inactive) | > 30 µM (inactive) | > 30 µM (inactive) | > 30 µM (inactive) | > 30 µM (inactive)
COc1cc(Nc2ncc(F)c(Nc3ccc4c(n3)N(COP(=O)(O)O)C(=O)C(C)(C)O4)n2)cc(OC)c1OC [FOSTAMATINIB] | > 30 µM (inactive) | > 30 µM (inactive) | > 30 µM (inactive) | > 30 µM (inactive) | > 30 µM (inactive) | > 30 µM (inactive)
Cc1ccc(C(=O)Nc2ccc(Oc3cc4cnn(C)c4cc3-c3cn[nH]c3)c(F)c2)c(=O)n1-c1ccc(F)cc1 [MERESTINIB] | > 30 µM (inactive) | > 30 µM (inactive) | > 30 µM (inactive) | > 30 µM (inactive) | > 30 µM (inactive) | > 30 µM (inactive)
